Test results as given in patent publication US12122789B2, “Forms of pyrido[1,2-a]pyrimidin-4-one derivatives, its formulation and its process of making” (Hoffmann-La Roche Inc., priority 2018, dated 2024).
Each block holds one molecule with its values, some of them ahead of it.

How the values were obtained:
[1] = chemical stability of the solid form; format: physicochemical; conditions: compared to Form D
[2] = hygroscopicity (water uptake according to European Pharmacopoeia); format: physicochemical
[3] = relative thermodynamic stability of crystal forms (equilibration of suspensions); format: physicochemical; conditions: for thermodynamic stability of the polymorph: in particular between 5° C. to 65° C.
Source text: Alternatively, Form A can be obtained upon equilibration of solid 7-(4,7-diazaspiro[2.5]octan-7-yl)-2-(2,8-dimethylimidazo[1,2-b]pyridazin-6-yl)pyrido[1,2-a]pyrimidin-4-one suspended in organic solvents or a mixture thereof for prolonged time. In particular 7-(4,7-diazaspiro[2.5]octan-7-yl)-2-(2,8-dimethylimidazo[1,2-b]pyridazin-6-yl)pyrido[1,2-a]pyrimidin-4-one can be suspended in ethanol, methyl ethyl ketone, ethyl acetate, or dioxane at ambient temperature or at elevated temperature (e.g. 22 to 65° C.) for 2-3 weeks affording 7-(4,7-diazaspiro[2.5]octan-7-yl)-2-(2,8-dimethylimidazo[1,2-b]pyridazin-6-yl)pyrido[1,2-a]pyrimidin-4-one as Form A.
Form D can be obtained by equilibration of solid 7-(4,7-diazaspiro[2.5]octan-7-yl)-2-(2,8-dimethylimidazo[1,2-b]pyridazin-6-yl)pyrido[1,2-a]pyrimidin-4-one suspended in water or water containing organic solvents for prolonged time. 7-(4,7-diazaspiro[2.5]octan-7-yl)-2-(2,8-dimethylimidazo[1,2-b]pyridazin-6-yl)pyrido[1,2-a]pyrimidin-4-one can be suspended in water or mixtures of organic solvent and water, in particular in ethanol/water mixtures. In particular, the mixture can be left in equilibration for 2-3 weeks in water or in ethanol/water 20/80 v/v at 65° C. to afford 7-(4,7-diazaspiro[2.5]octan-7-yl)-2-(2,8-dimethylimidazo[1,2-b]pyridazin-6-yl)pyrido[1,2-a]pyrimidin-4-one as Form D. In particular, the mixture can be left in equilibration for 2-3 weeks in water or in ethanol/water 20/80 v/v to 50/50 v/v to 80/20 v/v at approx. 22° C. to afford 7-(4,7-diazaspiro[2.5]octan-7-yl)-2-(2,8-dimethylimidazo[1,2-b]pyridazin-6-yl)pyrido[1,2-a]pyrimidin-4-one as Form D.

[4] = test system: exon 7 of SMN1 and/or SMN2; experiment: inclusion of exon 7 into mRNA transcribed from the SMN1 and/or SMN2 gene; conditions: increasing expression of SMN protein in a human subject

Structure (SMILES): Cc1cn2nc(-c3cc(=O)n4cc(N5CCNC6(CC6)C5)ccc4n3)cc(C)c2n1 [Form B, 7-(4,7-diazaspiro[2.5]octan-7-yl)-2-(2,8-dimethylimidazo[1,2-b]pyridazin-6-yl)pyrido[1,2-a]pyrimidin-4-one]
- thermodynamic stability of the polymorph [3]: metastable polymorph

Structure (SMILES): Cc1cn2nc(-c3cc(=O)n4cc(N5CCNC6(CC6)C5)ccc4n3)cc(C)c2n1 [compound of formula (I), 7-(4,7-diazaspiro[2.5]octan-7-yl)-2-(2,8-dimethylimidazo[1,2-b]pyridazin-6-yl)pyrido[1,2-a]pyrimidin-4-one]
- inclusion of exon 7 of SMN1 and/or SMN2 into mRNA [4]: enhance inclusion of exon 7

Continued, values first:

- chemical stability [1]: improved chemical stability
- hygroscopicity [2]: non-hygroscopic to slightly hygroscopic
- water uptake [2]: < 2%
- thermodynamic stability of the polymorph [3]: thermodynamic stable polymorph
Structure (SMILES): Cc1cn2nc(-c3cc(=O)n4cc(N5CCNC6(CC6)C5)ccc4n3)cc(C)c2n1 [Form A, 7-(4,7-diazaspiro[2.5]octan-7-yl)-2-(2,8-dimethylimidazo[1,2-b]pyridazin-6-yl)pyrido[1,2-a]pyrimidin-4-one]

- stability of the hydrated form ([3]; with sufficiently high water activity): stable hydrated form
Structure (SMILES): Cc1cn2nc(-c3cc(=O)n4cc(N5CCNC6(CC6)C5)ccc4n3)cc(C)c2n1 [Form D, 7-(4,7-diazaspiro[2.5]octan-7-yl)-2-(2,8-dimethylimidazo[1,2-b]pyridazin-6-yl)pyrido[1,2-a]pyrimidin-4-one]

- thermodynamic stability of the polymorph [3]: metastable polymorph
Structure (SMILES): Cc1cn2nc(-c3cc(=O)n4cc(N5CCNC6(CC6)C5)ccc4n3)cc(C)c2n1 [Form G, 7-(4,7-diazaspiro[2.5]octan-7-yl)-2-(2,8-dimethylimidazo[1,2-b]pyridazin-6-yl)pyrido[1,2-a]pyrimidin-4-one]
